Results from patent US20020086278A1, “CHROMOGENIC MEDIA CONTAINING BLOOD OR HEMIN” (priority 1999, published 2002).
Like-named read-outs stand apart in the source and are kept apart here.

Assays:
Format in all cases: cell-based
[1] = test system: Escherichia coli 25922; assay: Example 1: growth and colony color on plates surface-spread with chromogen; conditions: TSA II 5SB; E. coli 25922
[2] = test system: Streptococcus pneumoniae 6303; assay: as above; conditions: TSA Plain; S. pneu: 6303
[3] = test system: Group B Strep. 12386; assay: as above; conditions: for Color: Group B Strep 12386
[4] = test system: N. gonorrhoeae 35201; assay: as above; conditions: Substrate on Choclate II Agar; N. gono. 35201
[5] = test system: Gardnerella vaginalis 14019; assay: as above; conditions: Substrate on Choclate II Agar; G. vag. 14019
[6] = test system: Aeromonas hydrophilia (aehy); assay: Example 3: colony color on chromogenic TSA II with 5% sheep blood (chromogen in medium); conditions: CO2
[7] = test system: Branhamella catarrhalis (brca); assay: as above; conditions: for Colony Color: CO2
[8] = test system: Candida albicans (caal); assay: as above; conditions: for Colony Color: caal 10231
[9] = test system: Entercoccus faecalis (enfa); assay: as above; conditions: for Colony Color: CO2
[10] = test system: E. coli (non-O157) (esco)
[11] = test system: Klebsiella pneumoniae (klpn); assay: Example 3: colony color on chromogenic TSA II with 5% sheep blood (chromogen in medium); conditions: for Colony Color: CO2
[12] = test system: Pseudomonas aeruginosa (psae); assay: as above; conditions: CO2
[13] = test system: Salmonella spp. (sasp); conditions: for Colony Color: CO2
[14] = test system: Serratia marcescens (sema); assay: Example 3: colony color on chromogenic TSA II with 5% sheep blood (chromogen in medium); conditions: for Colony Color: sema 13880, CO2
[15] = test system: Streptococcus agalactiae (stag); assay: as above
[16] = chromogenic TSA II with 5% Sheep Blood, 0.1 g/l, 2 strains tested
[17] = chromogenic TSA II with 5% Sheep Blood, 0.1 g/l, 3 strains tested

Structure (SMILES): OC[C@H]1O[C@@H](Oc2c[nH]c3ccc(Br)c(Cl)c23)[C@H](O)[C@@H](O)[C@@H]1O [X-Glucoside, 5-Br-4-Cl-3-indolyl-β-D-glucopyranoside]
- Growth [1]: 4
- Growth [2]: <
- Color ([3]; Choc II): blue
- Substrates Producing Color ([3]; Summary of Table I, Group B Strep. 12386): X-Glucoside, X-
- Color ([3]; TSA II 5SB): blue
- Color ([3]; TSA Plain): blue
- Growth [4]: <
- Growth [5]: <
- Colony Color ([6]; aehy 7965, 18 h): 0
- Colony Color ([6]; aehy 7965, 21 h): 0
- Colony Color ([6]; aehy 7966, 18 h): 0
- Colony Color ([6]; aehy 49847, 18 h): gb
- Colony Color ([6]; aehy 49847, 21 h): gb
- Colony Color ([7]; brca 25238, 18 h): 0
- Colony Color ([7]; brca 25238, 21 h): 0
- Colony Color ([7]; brca 25240, 18 h): 0
- Colony Color ([7]; brca 25240, 21 h): 0
- Colony Color (Summary) [7, 16]: 0
- Colony Color ([8]; CO2, 18 h): 0
- Colony Color ([8]; CO2, 24 h): 0
- Colony Color ([8]; air, 24 h): 0
- Colony Color (Summary) [8, 16]: 0
- Colony Color (Summary) ([9]; chromogenic TSA II with 5% Sheep Blood, 0.1 g/l, 6 strains tested): +
- Colony Color ([9]; enfa 597, 18 h): db
- Colony Color ([9]; enfa 10741, 18 h): db
- Colony Color ([9]; enfa 10741, 21 h): db
- Colony Color ([9]; enfa 12953, 18 h): db
- Colony Color ([9]; enfa 12953, 21 h): db
- Colony Color ([9]; enfa 14506, 18 h): db
- Colony Color ([9]; enfa 14506, 21 h): db
- Colony Color ([9]; enfa 29212, 18 h): db
- Colony Color ([9]; enfa 29212, 21 h): db
- Colony Color (Summary) [10, 17]: 0
- Colony Color ([10]; esco 11775, CO2, 18 h): 0
- Colony Color ([10]; esco 11775, CO2, 21 h): 0
- Colony Color ([10]; esco 25922, CO2, 24 h): 0
- Colony Color ([10]; esco 25922, air, 24 h): 0
- Colony Color ([10]; esco 33605, CO2, 18 h): 0
- Colony Color ([10]; esco 33605, CO2, 21 h): 0
- Colony Color (Summary) [11, 17]: +
- Colony Color ([11]; klpn 13883, 21 h): gb
- Colony Color ([11]; klpn 33495, 18 h): gb
- Colony Color ([11]; klpn 33606, 18 h): gb
- Colony Color ([11]; klpn 33606, 21 h): gb
- Colony Color ([12]; psae 9027, 18 h): 0
- Colony Color ([12]; psae 9027, 21 h): 0
- Colony Color ([12]; psae 15442, 18 h): 0
- Colony Color ([12]; psae 15442, 21 h): 0
- Colony Color ([12]; psae 33607, 18 h): 0
- Colony Color ([12]; psae 33607, 21 h): lgb
- Colony Color (Summary) [13, 16]: 0
- Colony Color ([13]; saty 19430, 18 h): 0
- Colony Color ([13]; saty 19430, 21 h): 0
- Colony Color ([13]; satym 14028, 18 h): 0
- Colony Color ([13]; satym 14028, 21 h): 0
- Colony Color (Summary) ([14]; chromogenic TSA II with 5% Sheep Blood, 0.1 g/l, 1 strain tested): +
- Colony Color ([14]; 18 h): bg
- Colony Color ([14]; 21 h): gb
- Colony hemolytic activity ([15]; Group B Strep on X-glucoside TSA II): slightly reduced
- Colony Color ([15]; Group B Strep, 3 of 3 strains, X-glucoside TSA II): blue
- Colony Color (Summary) [15, 17]: +
- CAMP test ([15]; on X-glucoside TSA II): works well
